# Target: Superoxide dismutase [Cu-Zn] (Homo sapiens) (UniProt P00441)
# Test: Binding affinity to human EGFP-tagged SOD1 A4V mutant mRNA expressed in mouse Neuro2a cells assessed as reduction in cells bearing inclusions at 25 uM measured 72 hrs post transfection by Hoechst33342 staining-based epifluorescence microscopic analysis (reference value: 19 to 21%)
# Type: cell-based
# Parameters: scale not given: the % may be the effect or the level left
# Chain of Superoxide dismutase [Cu-Zn] (Homo sapiens) (P00441 whole entry): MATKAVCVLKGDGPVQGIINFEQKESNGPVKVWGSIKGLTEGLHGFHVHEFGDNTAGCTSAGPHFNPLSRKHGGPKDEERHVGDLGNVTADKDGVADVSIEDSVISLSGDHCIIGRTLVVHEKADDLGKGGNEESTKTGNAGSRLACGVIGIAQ
row,Activity [%],Compound
1,17,CC(=O)Oc1c(C)c(C)c2c(c1Cn1cc(CCC(=O)NCCN(CC(=O)NCCN(CC(=O)NCCN(CC(=O)NCCN(CC(=O)NCCN(CC(=O)NCCN(CC(=O)NCCN(CC(=O)NCCN(CC(=O)NCCN(CC(N)=O)C(=O)Cn3cnc4c(=O)[nH]c(N)nc43)C(=O)Cn3ccc(N)nc3=O)C(=O)Cn3cnc4c(N)ncnc43)C(=O)Cn3ccc(N)nc3=O)C(=O)Cn3cnc4c(=O)[nH]c(N)nc43)C(=O)Cn3cnc4c(N)ncnc43)C(=O)Cn3ccc(N)nc3=O)C(=O)Cn3cc(C)c(=O)[nH]c3=O)C(=O)Cn3cc(C)c(=O)[nH]c3=O)nn1)CCC(C)(CCCC(C)CCCC(C)CCCC(C)C)O2 (centres undefined)
2,16,Cc1c(C)c2c(c(C)c1O)CCC(C)(C(=O)NCCN(CC(=O)NCCN(CC(=O)NCCN(CC(=O)NCCN(CC(=O)NCCN(CC(=O)NCCN(CC(=O)NCCN(CC(=O)NCCN(CC(=O)NCCN(CC(N)=O)C(=O)Cn1cnc3c(=O)[nH]c(N)nc31)C(=O)Cn1ccc(N)nc1=O)C(=O)Cn1cnc3c(N)ncnc31)C(=O)Cn1ccc(N)nc1=O)C(=O)Cn1cnc3c(=O)[nH]c(N)nc31)C(=O)Cn1cnc3c(N)ncnc31)C(=O)Cn1ccc(N)nc1=O)C(=O)Cn1cc(C)c(=O)[nH]c1=O)C(=O)Cn1cc(C)c(=O)[nH]c1=O)O2 (centres undefined)
3,14,O=C(CS)N[C@@H]1CCCC[C@H]1NC(=O)CS (racemic)
4,14,CCOC(=O)C1(C)CCc2c(Cn3cc(CCC(=O)NCCN(CC(=O)NCCN(CC(=O)NCCN(CC(=O)NCCN(CC(=O)NCCN(CC(=O)NCCN(CC(=O)NCCN(CC(=O)NCCN(CC(=O)NCCN(CC(N)=O)C(=O)Cn4cnc5c(=O)[nH]c(N)nc54)C(=O)Cn4ccc(N)nc4=O)C(=O)Cn4cnc5c(N)ncnc54)C(=O)Cn4ccc(N)nc4=O)C(=O)Cn4cnc5c(=O)[nH]c(N)nc54)C(=O)Cn4cnc5c(N)ncnc54)C(=O)Cn4ccc(N)nc4=O)C(=O)Cn4cc(C)c(=O)[nH]c4=O)C(=O)Cn4cc(C)c(=O)[nH]c4=O)nn3)c(OC(C)=O)c(C)c(C)c2O1 (centres undefined)

# Source: ChEMBL document CHEMBL3774353, “Efficacy of peptide nucleic acid and selected conjugates against specific cellular pathologies of amyotrophic lateral sclerosis” (Bioorg Med Chem, 2016)
